The term Tmax denotes the time from dosing to the highest level. One may read the IC50 as the concentration that inhibits the measured activity by half. What is called fraction unbound is the share of the substance not bound to proteins or other matrix.

Consider one compound from ChEMBL document CHEMBL5120836, “Discovery of novel 7,8-dihydropteridine-6(5H)-one-based DNA-PK inhibitors as potential anticancer agents via scaffold hopping strategy” (Eur J Med Chem, 2022).

A short description of data set [1]: Toxicity in BALB/c nude mouse xenografted with human HL-60 cells assessed as MCV level at 100 mg/kg, po qd for 16 days (reference value: 57.2 fL). It is filed as organism-based. The conditions noted are these: in vivo, 384 h, time 16 day. (In general: Xenograft models place foreign cells or tissue in a host animal.)
Another data set concerns HL-60. Description: Synergistic antiproliferative activity against human HL-60 cells assessed as combination index at 50 uM in presence of 0.1 uM doxorubicin by MTT assay. It is filed as functional. For orientation: Formazan colour is commonly taken as a measure of viable cells.
Data set [2] in a line: Tmax in Sprague-Dawley rat at 5 mg/kg, po. In kind it is ADME, organism-based. The settings on record: in vivo.
In the next data set the test system is HCT-116. Description: Induction of apoptosis in human HCT-116 cells assessed as viable cells at 1 uM incubated for 24 hrs by AnnexinV-FITC/PI staining based flow cytometry (reference value: 93.9%). It is filed as functional. The settings on record: read-out: Activity. For orientation: A flow cytometer gives signals particle by particle.
A short description of data set [3]: Toxicity in BALB/c nude mouse xenografted with human HL-60 cells assessed as serum monocytes content at 100 mg/kg, po qd for 16 days (reference value: 12.2%). The settings on record: in vivo, 384 h, time 16 day. It is filed as organism-based.
Another data set deals with MCF7. The data set can be described thus: Synergistic antiproliferative activity against human MCF7 cells assessed as combination index at 200 uM in presence of 0.1 uM doxorubicin by MTT assay. In kind it is functional.
The target of data set [4] is Phosphatidylinositol 4,5-bisphosphate 3-kinase catalytic subunit alpha isoform (Homo sapiens, UniProt P42336). The data set can be described thus: Inhibition of human PI3Kalpha by Kinase-Glo assay. In kind it is toxicity.
Sequence of Phosphatidylinositol 4,5-bisphosphate 3-kinase catalytic subunit alpha isoform (P42336 whole entry, canonical isoform): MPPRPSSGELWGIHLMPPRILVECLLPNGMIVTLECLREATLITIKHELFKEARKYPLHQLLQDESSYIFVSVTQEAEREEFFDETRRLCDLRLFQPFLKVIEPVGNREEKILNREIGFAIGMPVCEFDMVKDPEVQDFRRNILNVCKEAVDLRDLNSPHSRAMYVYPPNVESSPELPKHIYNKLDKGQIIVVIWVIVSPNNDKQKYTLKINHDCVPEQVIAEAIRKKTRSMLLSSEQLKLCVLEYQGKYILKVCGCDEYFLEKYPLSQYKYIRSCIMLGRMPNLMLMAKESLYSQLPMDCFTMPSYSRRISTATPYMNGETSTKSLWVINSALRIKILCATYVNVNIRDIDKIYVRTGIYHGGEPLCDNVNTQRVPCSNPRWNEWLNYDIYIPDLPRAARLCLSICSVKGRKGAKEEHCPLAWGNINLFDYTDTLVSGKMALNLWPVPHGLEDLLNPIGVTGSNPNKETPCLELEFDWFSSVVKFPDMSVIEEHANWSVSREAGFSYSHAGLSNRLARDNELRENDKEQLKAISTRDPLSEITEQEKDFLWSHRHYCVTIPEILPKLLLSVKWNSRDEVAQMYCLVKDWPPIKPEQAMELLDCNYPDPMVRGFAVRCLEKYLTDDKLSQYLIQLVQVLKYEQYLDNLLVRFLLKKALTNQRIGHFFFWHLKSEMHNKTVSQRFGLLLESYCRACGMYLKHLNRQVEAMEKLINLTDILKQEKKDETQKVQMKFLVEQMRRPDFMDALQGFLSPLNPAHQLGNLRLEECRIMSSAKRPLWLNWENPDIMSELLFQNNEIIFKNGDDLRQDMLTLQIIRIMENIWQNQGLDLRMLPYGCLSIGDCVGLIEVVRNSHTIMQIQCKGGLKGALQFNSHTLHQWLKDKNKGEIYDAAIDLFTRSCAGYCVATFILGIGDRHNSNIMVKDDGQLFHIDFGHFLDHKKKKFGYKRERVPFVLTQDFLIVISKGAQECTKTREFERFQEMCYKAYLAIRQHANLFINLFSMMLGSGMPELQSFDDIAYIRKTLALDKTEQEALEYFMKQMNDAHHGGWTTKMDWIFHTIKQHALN
The subject of a further data set is HepG2. The data set can be described thus: Synergistic antiproliferative activity against Doxorubicin-resistant human HepG2 cells assessed as combination index at 12.5 uM in presence of 0.1 uM doxorubicin by MTT assay. In kind it is functional.
A short description of data set [5]: Toxicity in BALB/c nude mouse xenografted with human HL-60 cells assessed as effect on body weight at 100 mg/kg, po qd for 16 days co-administered with doxorubicin. It is filed as organism-based. The settings on record: in vivo, 384 h, time 16 day.
The nature of data set [6]: Toxicity in BALB/c nude mouse xenografted with human HL-60 cells assessed as effect on body weight at 100 mg/kg, po qd for 16 days. In kind it is organism-based. The settings on record: in vivo, 384 h, time 16 day.
Data set [7] is described as follows: Plasma protein binding in human assessed as free fraction. In kind it is ADME, cell-free.
A further data set deals with MDA-MB-231. Description: Synergistic antiproliferative activity against human MDA-MB-231 cells assessed as combination index at 6.25 uM in presence of 0.1 uM doxorubicin by MTT assay. It is filed as functional.

Consider `Cc1cc2ncnn2cc1Nc1ncc2c(n1)N(C1CCOCC1)CC(=O)N2C`, for which the Activity in [1] was 56.1 fL; in data set [3], 12.15%; in [5] it was “Non-Toxic”; in data set [6] it was “Non-Toxic”. The CI with HL-60 came to 0.2758; in the data set with MCF7 it was 0.2697; in the data set on HepG2, 0.04474; with MDA-MB-231, 0.3693. The Tmax in data set [2] is 25.2 min. In addition, the viability at 1 µM in the data set with HCT-116 worked out at 92.5%. The IC50 in data set [4] was determined as 187 nM. Further, the fraction unbound in [7] is 0.859.
